For assay [1], the system named is immature male rats (testis growth). Nature of the assay: Testis weight in immature male rats after 2 days of treatment. The class given is in vivo. Conditions: 21 days of age, GnRH antagonist 50 μg/rat, testes weighed two days after initial injection, untreated 192±28 mg. As for the experimental part:
Immature male rats (21 days of age, weighing between about 45 and 50 g) were injected subcutaneously (s.c.) every 6h for a period of 2 days with 1 ml conditioned media of SF9 cells (10^8 cells equivalent/injection) containing solubilized FSH receptor fragments prepared as described above. The concentration of soluble receptor protein in the injection volume was between about 30 and 100 μg/ml. The effective dose administered every 6 hours was therefore between […].
(§1) Two days after the initial injection, the testis were weighed and testis cell apoptosis was quantitated using a 3' end-labeling method (Tapanainen,et al., 1993). The effects of FBP were also assayed using in situ analysis of specific cell types undergoing apoptosis with the "APOTAG" kit (Oncor, Gaithersburg, Md.) as previously described (Billig, et al., 1995).
Some animals were treated with a potent gonadotropin releasing hormone (GnRH) antagonist (Org30850: Acetyl-D-parachloro-Phe (AcDpCl-Phe), D-parachloro-Phe (DpCl-Phe), D-Bal, DLys, DAla-amide; (AcDpCl)Phe1 - (DpCl)Phe2 - D-Bal3 - DLys6 -DAla10(amide) (SEQ ID NO:5; D refers to D (not L) amino acids); 50 μg/rat, FIG. 5C (ANT); Decker, et al., 1992) to suppress pituitary release of LH and FSH (Decker, et al., 1992) whereas others were treated with conditioned media of SF9 cells infected with wild type baculovirus. […]

A further assay concerns rat testis cells. As to the kind of experiment: Testis cell apoptosis, DNA fragmentation by 3' end-labeling and in situ analysis (Apotag kit). It is filed as in vivo. Conditions: immature male rats; GnRH antagonist 50 μg/rat; 2 days; FIG. 5C; comparable to FBP-treated group. On the procedure:
as §1
Some animals were treated with a potent gonadotropin releasing hormone (GnRH) antagonist (Org30850: Acetyl-D-parachloro-Phe (AcDpCl-Phe), D-parachloro-Phe (DpCl-Phe), D-Bal, DLys, DAla-amide; (AcDpCl)Phe1 - (DpCl)Phe2 - D-Bal3 - DLys6 -DAla10(amide) (SEQ ID NO:5; D refers to D (not L) amino acids); 50 μg/rat, FIG. 5C (ANT); Decker, et al., 1992) to suppress pituitary release of LH and FSH (Decker, et al., 1992) whereas others were treated with conditioned media of SF9 cells infected with wild type baculovirus. In situ analysis of specific cell types undergoing apoptosis was performed using Apotag kit (Oncor, Gaithersburg, MD) as previously described (Billig, et al., 1995). Animal care was in accordance with institutional guidelines.

Take “Acetyl-D-parachloro-Phe (AcDpCl-Phe), D-parachloro-Phe (DpCl-Phe), D-Bal, DLys, DAla-amide; (AcDpCl)Phe1 - (DpCl)Phe2 - D-Bal3 - DLys6 -DAla10(amide) [ANT]”: the testis weight in assay [1] is 140 ± 18 mg. The “apoptotic DNA fragmentation in testis cells” value with rat testis cells is “increases in apoptotic DNA fragmentation”.

The record behind these values is patent US5925549A, “Soluble 7-transmembrane domain G-protein-coupled receptor compositions and methods” (The Board of Trustees of the Leland Stanford Junior …, priority 1997, dated 1999).
